Measured values from patent US20100159030A1, “METHODS FOR DETECTING AND MODULATING THE SENSITIVITY OF TUMOR CELLS TO ANTI-MITOTIC AGENTS AND FOR MODULATING TURMORGENICITY” (NewSouth Innovations Pty Limited, priority 2007, published 2010).
Where two headings read alike, the source gives them in different places.

What was measured:
Calu-6 cells [1] = assay: Immunofluorescent staining of microtubules (α-tubulin) after drug treatment; assay type: cell-based, Human; settings: 1 h, vs control
Procedure: Transfected Calu-6 cells were grown on sterile chamber slides until 60-70% confluent. Cells were then treated with paclitaxel and vincristine for 1 h at 10 nM. Cells were fixed in methanol and processed for staining as previously described (Don et al. (2004) supra) with minor modifications. Fixed cells were stained with α-tubulin (1:400 in 5% FCS/PBS, Sigma) for 30 min followed by Cy2 anti-mouse fluorescent tagged antibody (1:1,000 in 5% FCS/PBS, GE Healthcare). Slides were mounted on a coverslip using DAPI II Counterstain (Vysis Inc., Downers Grove, Ill.). Slides were viewed using a Zeiss Axioplan 2 Immunofluorescence Microscope (Mannheim, Germany) with Image-Pro® Plus 4.1 software (Media Cybernetics, L.P., Silver Spring, Md.).
To assess the effects of βIII downregulation on microtubule organization, immunofluorescence staining was performed on transfected Calu-6 cells as follows. Briefly, siRNA transfected cells were plated in glass chamber slides and allowed to reach 70% confluence. Cells were then treated with 10 nM of paclitaxel or vincristine for 1 hour. Drug was then removed by washing cells with PBS and blocked in 10% FCS/PBS. For dual staining, cells were first labelled with an antibody to class III β-tubulin which was exposed to cells incubated at 37° C. for 30 minutes in a humidified chamber. Following washes in 0.1% Tween 20/PBS at room temperature, the slides were incubated with Cy3 anti-mouse fluorescent-tagged antibody (GE Healthcare) for 40 minutes in a humidified chamber in the dark at room temperature. Following incubation, the slides were washed again in 0.1% Tween 20/PBS. This was then followed by staining with α-tubulin and Cy2 anti-mouse fluorescent tagged antibody (GE Healthcare). Slides were mounted on a coverslip using DAPI II Counterstain (Vysis Inc., Downers Grove, Ill.). Immunofluorescence microscopy was performed and images were captured using a Sensicam Charged Coupled Device camera (PCO Imaging, Kelheim, Bavaria, Germany) and the Image-Pro® Plus 4.1 software (Media Cybernetics, L.P., Silver Spring, Md.).

NSCLC H460 cells = assay: Drug-treated clonogenic assay (surviving fraction, ID50) on siRNA/shRNA-transfected cells; assay type: cell-based, Human; settings: for IC50: Homo sapiens; for change in drug sensitivity (clonogenic survival): H460
Procedure: (§1) Cells were transfected for 24 h and approximately 600 cells (for Calu-6) or 150 cells (for H460) were seeded into each well of a 6-well plate and allowed to attach for 4-6 h. The cell lines used in this study were not subject to prior drug selection, and are likely to represent intrinsic drug resistance observed in lung carcinoma.
(§2) Cells were then treated with increasing concentrations of various anti-mitotic drugs. Following a 3-day incubation at 37° C., the drug-containing medium was removed and replaced with fresh complete medium. Medium was changed at 3-4 day intervals for 7 to 10 days until visible colonies formed. […] Surviving colonies were simultaneously fixed and stained with 0.5% crystal violet in methanol, rinsed with water to remove excess stain and air-dried overnight.
(§3) The colonies in each well were manually counted, and the results were presented as surviving fraction according to the formula: surviving fraction was calculated as follows: colony number/(number of cells seeded×plating efficiency), where plating efficiency is equivalent to the colony number divided by the number of cells seeded in the drug-free medium. Dose-response curves were plotted for each drug-cell line combination and inhibitory dose (ID50) values were extrapolated from this curve using GraphPad Prism program (GraphPad Software, version 4, San Diego, Calif.). ID50 was defined as the concentration of the drug required to reduce the number of colonies in drug-treated wells to 50% of that of the relevant untreated control wells. The ID50 values were the means of at least four independent experiments.
(§4) To quantitate any change in drug sensitivity, drug treated clonogenic assays were performed. Twenty-four hours after siRNA transfection, cells were harvested and plated into 6-well plates for 6 h, prior to the addition of various drugs as indicated in the figure legends. After 72 h incubation, the drug-containing media was removed and replaced with complete growth media. Medium was changed every 3 days for 7 to 10 days until visible colonies formed. Colonies were simultaneously fixed and stained with 0.5% crystal violet in methanol, and manually counted. Individual stained colonies in each well were counted and the surviving fraction was calculated as follows: colony number/(number of cells seeded×plating efficiency), where plating efficiency equals the colony number divided by the number of cells seeded in drug-free media.

H460 cells = assay: Apoptosis induction, Annexin V-FITC flow cytometry; assay type: cell-based, Human; settings: 48 h
Procedure: Annexin V-FITC staining followed by flow cytometry analysis was performed to address whether the increase in the sub-G1 population following exposure to tubulin-binding agents in the βIII-tubulin siRNA treated cells was related to an increase in apoptosis induction. Apoptosis induction was determined by transfecting H460 cells with siRNA for 72 h and harvesting (adherent and suspension) cells 48 h after drug treatment, as previously described in Pasquier et al., Mol Cancer Ther 2004; 3:1301-10. Briefly, 1×10^5 cells were incubated with Annexin V-FITC and propidium iodide for 15 min in the dark (Becton-Dickinson), immediately followed by flow cytometry using a FACSCalibur (Becton-Dickinson). Cytogram analysis was performed using CellQuest® software.

CCRF-CEM Leukaemia cells = assay type: cell-based; settings: 2ME2-resistant sublines
From the text: The tubulin-binding agent 2-methoxyestradiol (2ME2) binds to β-tubulin near the colchicine-binding site, inhibits microtubule polymerization, and induces mitotic arrest. CCRF-CEM Leukaemia cells that display increasing resistance to 2ME2 were selected, and four of the highly 2ME2 resistant leukaemia sublines were chosen for detailed analysis.

Calu-6 cells [2] = assay: Drug-treated clonogenic assay on siRNA-transfected cells; assay type: cell-based, Human
Procedure: as §1, §2, §3, §4

[3] = class II β-tubulin siRNA knockdown vs controls
[4] = class IVb β-tubulin siRNA knockdown vs controls

Structure (SMILES): CC(=O)O[C@H]1C(=O)[C@@]2(C)[C@H]([C@H](OC(=O)c3ccccc3)[C@]3(O)C[C@H](OC(=O)[C@H](O)[C@@H](NC(=O)c4ccccc4)c4ccccc4)C(C)=C1C3(C)C)[C@]1(OC(C)=O)CO[C@@H]1C[C@@H]2O [Paclitaxel, paclitaxel]
- microtubule morphology (Calu-6 cells [1]; βII siRNA-transfected Calu-6, 10 nM drug): did not appear significantly different
- microtubule morphology (Calu-6 cells [1]; βIII siRNA-transfected Calu-6, 10 nM drug): extensive disruption of the microtubule cytoskeleton
- IC50 (NSCLC H460 cells; NCI-H460, Table 2, 27-mer βIII siRNA Sequence-8 H460 cells, read-out: ID50 ± SEM): 1.7 ± 0.043 nM
- IC50 (NSCLC H460 cells; NCI-H460, Table 2, 27-mer βIII siRNA Sequence-11 H460 cells, read-out: ID50 ± SEM): 1.78 ± 0.07 nM
- IC50 (NSCLC H460 cells; NCI-H460, Table 2, Ctrl-1 (27-mer control siRNA) H460 cells, read-out: ID50 ± SEM): 2.89 ± 0.165 nM
- IC50 (NSCLC H460 cells; NCI-H460, Table 2, mock-transfected H460 cells, read-out: ID50 ± SEM): 2.63 ± 0.136 nM
- IC50 (NSCLC H460 cells; NCI-H460, Table 3, H460 Ctrl clone 1, read-out: Paclitaxel ID50 ± SEM): 2.75 ± 0.131 nM
- IC50 (NSCLC H460 cells; NCI-H460, Table 3, H460 Ctrl clone 2, read-out: Paclitaxel ID50 ± SEM): 2.83 ± 0.093 nM
- IC50 (NSCLC H460 cells; NCI-H460, Table 3, H460 βIII shRNA clone 4, read-out: Paclitaxel ID50 ± SEM): 1.36 ± 0.087 nM
- IC50 (NSCLC H460 cells; NCI-H460, Table 3, H460 βIII shRNA clone 59, read-out: Paclitaxel ID50 ± SEM): 1.78 ± 0.07 nM
- IC50 (NSCLC H460 cells; NCI-H460, Table 3, H460 βIII shRNA clone 60, read-out: Paclitaxel ID50 ± SEM): 1.58 ± 0.095 nM
- RS (relative sensitivity) (NSCLC H460 cells; Table 2, 27-mer βIII siRNA Sequence-8 H460 cells): (1.55, <0.0001***)
- RS (relative sensitivity) (NSCLC H460 cells; Table 2, 27-mer βIII siRNA Sequence-11 H460 cells): (1.42, 0.0001***)
- RS (relative sensitivity) (NSCLC H460 cells; Table 2, Ctrl-1 H460 cells): (0.91, NS)
- RS (relative sensitivity) (NSCLC H460 cells; Table 3, Ctrl clone 2 compared to ctrl clone 1): (0.97, NS)
- RS (relative sensitivity) (NSCLC H460 cells; Table 3, βIII shRNA clone 4 compared to ctrl clone 1): (2.03, <0.0001***)
- RS (relative sensitivity) (NSCLC H460 cells; Table 3, βIII shRNA clone 59 compared to ctrl clone 1): (1.55, <0.0001***)
- RS (relative sensitivity) (NSCLC H460 cells; Table 3, βIII shRNA clone 60 compared to ctrl clone 1): (1.74, <0.0001***)
- change in drug sensitivity (clonogenic survival) (NSCLC H460 cells; [3]): did not significantly potentiate the cytotoxicity
- change in drug sensitivity (clonogenic survival) (NSCLC H460 cells; [4]): did not significantly enhance the cytotoxicity
- change in drug sensitivity (clonogenic survival) (NSCLC H460 cells; βIII-tubulin siRNA silencing vs controls): significant increase in sensitivity
- concentration from which apoptosis is induced (H460 cells; control siRNA treated cells): ≥ 5 nM
- concentration from which apoptosis is induced (H460 cells; βIII-tubulin siRNA treated cells): ≥ 1 nM
- percentage of apoptotic cells (H460 cells; βIII-tubulin siRNA vs control siRNA cells, paclitaxel 1, 2, 5 nM, cisplatin 0.4 or 1 μM): significantly higher
- cross-resistance of the 2ME2-resistant cells (CCRF-CEM Leukaemia cells): not cross resistant
- change in drug sensitivity (clonogenic survival) (Calu-6 cells [2]; [3]): did not significantly potentiate the cytotoxicity
- change in drug sensitivity (clonogenic survival) (Calu-6 cells [2]; [4]): no effect on sensitivity
